How the values were obtained:
[1] = design: method as in PMID 30544701; conditions: method not given, ref [45], cited from earlier work
[2] = system: WiDr cells; experiment: Growth inhibition of WiDr cells; type: cell-based; conditions: Homo sapiens, 72 hr exposure, read-out: Concentration leading to 50% growth inhibition
[3] = design: method as in PMID 17429625; conditions: ref [32]; cited from earlier work
[4] = system: CaCo2 monolayer; experiment: CaCo2 Transwell transport (Papp, efflux ratio); type: in vitro ADME, human; conditions: 20 µM
Procedure: (§1) The Transwell system was developed using the wild type Caco-2 cell line (passage 15–25) cultured in Dulbecco’s […] medium (DMEM) at standard conditions of 37 °C, 5% CO2, and 100% humidity as previously reported. […] To ensure a controlled growth environment the plate was covered with Breathe-Easier cell culture foil during the incubation period. The integrity of the developed monolayer was assessed by TEER before administration of compound solutions and after the final sampling stage.
(§2) The initial concentration of the drug was verified from a 20 µL sample taken immediately from the donor compartment after drug administration (t = 0).
(§3) The permeability coefficient (Papp) represents a measure for the efficiency of transport and was calculated with the following equation: Papp=ΔQ/Δt×V/C0⋅A where ∆Q/∆t = the rate of increase in drug concentration (accumulative mass transport) in the receiver compartment over time (µM/s), V = volume in the receiver compartment (mL), C0 = the initial concentration of drug in the donor compartment (µM), and A = the membrane surface area (cm^2).
(§4) To take into account the slightly nonlinear transfer characteristics of each compound, the rate of increase in drug concentration was determined for each time period and the Papp was then calculated. The average Papp was then determined with units of cm/s × 10^−6 or µm/s.
(§5) The efflux ratio was calculated according to the equation: Efflux ratio=PappB→A/PappA→B.
(§6) Statistical significance was determined using a simple Student’s t-test where a p value of <0.05 was considered significant.

[5] = CaCo2 Transwell transport (Papp, efflux ratio); type: in vitro ADME, human; conditions: human
Procedure: as §1, §2, §3, §4, §5, §6

[6] = system: HT29 cells; experiment: Intracellular accumulation in HT29 colon cancer cells; type: in vitro ADME; conditions: after 24 h
Procedure: (§7) In order to get insight in the barrier role of the CaCo2 model system, we determined the intracellular accumulation of the TKISs at the end of the transport period, in normal monolayers of CaCo2 cells and in several other colon cancer cell lines. At the end of the transport period (both from the B->A and A->B incubations), cells were harvested and intracellular accumulation was determined.
In a different set of experiments, the CaCo2 cells were cultured in 6-wells plates as monolayers until semiconfluency. Two other colon cancer cell lines, WiDr and HT29, were cultured similarly. […]

[7] = system: CaCo2 cells; experiment: Intracellular accumulation in CaCo2 Transwell cells at the end of the transport period; type: in vitro ADME, human; conditions: A->B incubation
Procedure: as §7
These cells were exposed to 20 μM of a TKI and were harvested after 2 h for determination of TKI concentration with LC-MS-MS. Values are means ± SEM for the number of experiments described in Figure 3, Figure 4, and Figure 5 and from three separate experiments for the monolayer CaCo2 and WiDr cells. […] A->B, mass transport from A to B; B->A, mass transport from B to A. For AFA, CRI, and DAS, no data in WiDr cells were available. […] The bar heights were not read.
In a different set of experiments, the CaCo2 cells were cultured in 6-wells plates as monolayers until semiconfluency. Two other colon cancer cell lines, WiDr and HT29, were cultured similarly. These cells were exposed for 2 h to various TKIs at concentrations varying from 50 nM to 20 µM). […] At the end of the incubation, cells were harvested, as described earlier, and extracted for drug analysis using LC-MS-MS as described above.

Efflux Ratio (Papp B–A / Papp A–B) [4]: 6.0 | Total amount transferred apical to basolateral in 3 h ([4]; A–B, 3 h): 499.3 pmol | Papp basolateral to apical ([4]; B–A): 20.4 ×10⁻⁶ cm/s | Total amount transferred basolateral to apical in 3 h ([4]; B–A, 3 h): 13,889 pmol | Efflux Ratio (Papp B–A / Papp A–B) ([4]; listed as dasatinib): > 6 | efflux ratio at 180 min, 20 µM ([5]; Caco-2, 20 µM, read-out: Efflux Ratio (Papp B–A / Papp A–B)): > 5 | Papp A→B at 180 min, 20 µM ([5]; Caco-2, 20 µM, A–B, read-out: Papp (Apical Basolateral)): 3.4 ± 3.4 ×10⁻⁶ cm/s | Papp B→A at 180 min, 20 µM ([5]; Caco-2, 20 µM, B–A, read-out: Papp (Basolateral Apical)): 20.4 ± 13.5 ×10⁻⁶ cm/s | Intracellular accumulation in HT29 cells [6]: 0.14 pmol/μg protein | Intracellular accumulation at the end of the transfer period (A->B) [7]: 1.1 pmol/μg protein
Compound: Cc1nc(Nc2ncc(C(=O)Nc3c(C)cccc3Cl)s2)cc(N2CCN(CCO)CC2)n1 [Dasatinib, dasatinib]
Log P [1]: 2.24 | Log D (pH 5.5) ([1]; pH 5.5): −0.44 | Log D (pH 7.5) ([1]; pH 7.5): 2.17 | IC50 [2]: 60 nM | Bioavailability (animal) [3]: 14–27 [32] (animal) %

— publication PMC7696666, “Epithelial Transfer of the Tyrosine Kinase Inhibitors Erlotinib, Gefitinib, Afatinib, Crizotinib, Sorafenib, Sunitinib, and Dasatinib: Implications for Clinical Resistance” (Cancers, 2020)
